Data set [1] has as its system SARS-CoV-2 stock strain NL/2020. The data set can be described thus: Antiviral activity in A549-ACE2 cells using viral antigen quantitation (SARS-CoV-2 N protein immunofluorescence). The class given is cell-based. As to conditions: Severe acute respiratory syndrome coronavirus 2, MOI 0.005, 48 h; for EC50: concentration reducing SARS-CoV-2 infection efficiency by 50% vs vehicle; for EC90: concentration reducing SARS-CoV-2 infection efficiency by 90% vs vehicle.

A further data set is described as follows: in vitro. The settings on record: human.

Bounds are passed on as bounds.

For orientation: EC50 means the midpoint of the concentration-response curve. As usually defined, the EC90 is the concentration at which the effect reaches the 90% level. In data set [1], `COC(=O)c1cc(-c2cc3ccccc3o2)ccc1NC(C#N)[C@H](Cc1c[nH]c2ccccc12)NC(=O)OC(C)(C)C` (mixture of isomers) [Example 12, Methyl 5-(benzofuran-2-yl)-2-(((1RS,2S)-2-((tert-butoxycarbonyl)amino)-1-cyano-3-(1H-indol-3-yl)propyl)amino)benzoate] came in with an EC50 of 1850 nM and an EC90 of 5 µM. Besides, the CC50 in “in vitro” was greater than 50 µM.

`COC(=O)c1cc(-c2ccc3[nH]cnc3c2)ccc1NC(C#N)[C@H](Cc1c[nH]c2ccccc12)NC(=O)OC(C)(C)C` (mixture of isomers) [Example 15, Methyl 5-(1H-benzo[d]imidazol-5-yl)-2-(((1RS,2S)-2-((tert-butoxycarbonyl)amino)-1-cyano-3-(1H-indol-3-yl)propyl)amino)benzoate]: in data set [1], the EC50 was found to be 1000 nM and the EC90 is 4 µM. The compound also registered a CC50 in “in vitro” of 50 µM.

As for `COC(=O)c1cc(-c2ccc(NC(C)=O)nc2)ccc1NC(C#N)[C@H](Cc1c[nH]c2ccccc12)NC(=O)OC(C)(C)C` (mixture of isomers) [Example 29, Methyl 5-(6-acetamidopyridin-3-yl)-2-(((1RS,2S)-2-((tert-butoxycarbonyl)amino)-1-cyano-3-(1H-indol-3-yl)propyl)amino)benzoate], in data set [1], the EC50 was determined as 3000 nM and the 90% effect level (EC90) was put at 8 µM. In “in vitro”, the CC50 is greater than 50 µM.

For `CC(C)(C)OC(=O)N[C@H](Cc1c[nH]c2ccccc12)C(C#N)Nc1ccc(Br)cc1C(=O)c1ccccc1` (mixture of isomers) [Example 26, tert-Butyl ((1RS,2R)-1-((2-benzoyl-4-bromophenyl)amino)-1-cyano-3-(1H-indol-3-yl)propan-2-yl)carbamate], in data set [1], the EC50 came to 6000 nM and the EC90 worked out at 28 µM. Also, the CC50 in “in vitro” was determined as 50 µM.

In data set [1], `COC(=O)c1cc(-c2ccc(N3CCOCC3)cc2)ccc1NC(C#N)[C@H](Cc1c[nH]c2ccc(Br)cc12)NC(=O)OC(C)(C)C` (mixture of isomers) [Example 1, Methyl 4-(((1RS,2S)-3-(5-bromo-1H-indol-3-yl)-2-((tert-butoxycarbonyl)amino)-1-cyanopropyl)amino)-4'-morpholino-[1,1'-biphenyl]-3-carboxylate] showed an EC50 of 800 nM and an EC90 of 6 µM. For the same compound, in the data set “in vitro”, the CC50 was greater than 50 µM.

In the case of `COC(=O)c1cc(-c2ccc(N3CCOCC3)cc2)ccc1NC(C#N)[C@H](Cc1c[nH]c2ccc(-c3ccccc3)cc12)NC(=O)OC(C)(C)C` (mixture of isomers) [Example 5, Methyl 4-(((1RS,2S)-2-((tert-butoxycarbonyl)amino)-1-cyano-3-(5-phenyl-1H-indol-3-yl)propyl)amino)-4'-morpholino-[1,1'-biphenyl]-3-carboxylate], in data set [1], the EC50 was 4000 nM and the 90% effect level (EC90) was put at 13 µM. In addition, in the data set “in vitro”, the CC50 was greater than 50 µM.

In data set [1], `COC(=O)c1cc(-c2ccc(CN3CCOCC3)cc2)ccc1NC(C#N)[C@H](Cc1c[nH]c2ccccc12)NC(=O)OC(C)(C)C` (mixture of isomers) [Example 10, Methyl 4-(((1RS,2S)-2-((tert-butoxycarbonyl)amino)-1-cyano-3-(1H-indol-3-yl)propyl)amino)-4'-(morpholinomethyl)-[1,1'-biphenyl]-3-carboxylate] returned an EC50 of 900 nM and an EC90 of 2 µM. Besides, the CC50 in “in vitro” is greater than 50 µM.

In data set [1], `COC(=O)c1cc(-c2ccc(N3CCOCC3)cc2)ccc1NC(C#N)[C@H](Cc1c[nH]c2c(Br)cccc12)NC(=O)OC(C)(C)C` (mixture of isomers) [Example 3, Methyl 4-(((1RS,2S)-3-(7-bromo-1H-indol-3-yl)-2-((tert-butoxycarbonyl)amino)-1-cyanopropyl)amino)-4'-morpholino-[1,1'-biphenyl]-3-carboxylate] came in with an EC50 of 3500 nM and an EC90 of 8 µM. Moreover, in “in vitro”, the CC50 is greater than 50 µM.

In data set [1], `COC(=O)c1cc(-c2ccc(N3CCOCC3)cc2)ccc1NC(C#N)[C@H](Cc1c[nH]c2cccc(-c3ccc(-c4cn(CCCOCCOCCOCCNC(=O)CCC[C@H]5SC[C@H]6NC(=O)N[C@H]65)nn4)cc3)c12)NC(=O)OC(C)(C)C` (mixture of isomers) [Example 20, Methyl 4-(((1RS,2S)-2-((tert-butoxycarbonyl)amino)-1-cyano-3-(4-(4-(1-(14-oxo-17-((3aR,4R,6aS)-2-oxohexahydro-1H-thieno[3,4-d]imidazol-4-yl)-4,7,10-trioxa-13-azaheptadecyl)-1H-1,2,3-triazol-4-yl)phenyl)-1H-indol-3-yl)propyl)amino)-4'-morpholino-[1,1'-biphenyl]-3-carboxylate] displayed an EC50 of 2000 nM and a concentration for an effect of 90% (EC90) of 50 µM. In the data set “in vitro”, this compound yielded a CC50 greater than 50 µM.

In data set [1], `COC(=O)c1cc(-c2ccc(N3CCOCC3)cc2)ccc1NC(C#N)[C@H](Cc1c[nH]c2cc(Br)ccc12)NC(=O)OC(C)(C)C` (mixture of isomers) [Example 2, Methyl 4-(((1RS,2S)-3-(6-bromo-1H-indol-3-yl)-2-((tert-butoxycarbonyl)amino)-1-cyanopropyl)amino)-4'-morpholino-[1,1'-biphenyl]-3-carboxylate] came in with an EC50 of 1600 nM and an EC90 of 6 µM. Moreover, the CC50 in “in vitro” is greater than 50 µM.

For the compound `COC(=O)c1cc(-c2ccc3[nH]ccc3c2)ccc1NC(C#N)[C@H](Cc1c[nH]c2ccccc12)NC(=O)OC(C)(C)C` (mixture of isomers) [Example 9, Methyl 2-(((1RS,2S)-2-((tert-butoxycarbonyl)amino)-1-cyano-3-(1H-indol-3-yl)propyl)amino)-5-(1H-indol-5-yl)benzoate], in data set [1], the EC50 was less than 400 nM and the EC90 amounted to 5 µM. In “in vitro”, this compound yielded a CC50 of 50 µM.

Source of the values: patent EP4548976A1, “ANTIVIRAL COMPOUNDS AND COMPOSITIONS THEREFROM” (Consejo Superior De Investigaciones Científicas, priority 2023, dated 2025).
